# According to patent US20210261495A1, “COMPOSITIONS AND METHODS OF USING ITACONIC ACID DERIVATIVES” (ERGON PHARMACEUTICALS, LLC, priority 2018, published 2021):
# Tests used:
# IRG1 = biological target: T1, IRG1 (Homo sapiens, UniProt A6NK06); assay: Itaconic acid synthesis by LPS-stimulated macrophages (inhibition of IRG1), GC-MS; format: cell-based; conditions: LPS-stimulated hMDMs, 50, 100, 500 μM, LPS 8 hrs
# T1 construct: Human monocytes, isolated from peripheral blood and differentiated into macrophages; endogenous in cells; host or cells: human monocyte-derived macrophages (hMDMs), M-CSF differentiated, LPS-stimulated
# T1 sequence (A6NK06 1-481): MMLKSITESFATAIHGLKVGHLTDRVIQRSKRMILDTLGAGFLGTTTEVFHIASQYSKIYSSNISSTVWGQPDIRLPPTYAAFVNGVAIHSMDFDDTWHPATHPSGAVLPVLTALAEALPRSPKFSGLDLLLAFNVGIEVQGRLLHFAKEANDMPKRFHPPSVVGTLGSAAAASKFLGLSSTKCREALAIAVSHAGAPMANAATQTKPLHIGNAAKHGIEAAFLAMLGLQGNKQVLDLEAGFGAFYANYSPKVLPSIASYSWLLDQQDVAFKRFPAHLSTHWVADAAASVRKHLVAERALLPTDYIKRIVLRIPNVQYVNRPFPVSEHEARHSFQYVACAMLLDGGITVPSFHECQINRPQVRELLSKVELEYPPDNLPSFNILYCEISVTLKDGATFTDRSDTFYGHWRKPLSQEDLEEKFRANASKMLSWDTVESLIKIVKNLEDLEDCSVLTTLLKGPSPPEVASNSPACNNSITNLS
# Experimental: Inhibition of IRG1. Itaconic acid levels are a measure of IRG1 expression/activity. To determine the activity of IRG, hMDMs were stimulated with 100 ng/mL LPS for 8 hrs in the presence or absence of the therapeutic agent. Gas chromatography-mass spectroscopy (GC-MS) was used to estimate the intracellular and extracellular concentration of the itaconic acid. In a typical assay, 1-5×10^6 cells were plated onto a 6-well plate and allowed to adhere overnight. The cells were then stimulated with 0.1-1 μg/mL LPS in the presence or absence of the compound of interest for 8 hrs. The cells were then washed and metabolites were extracted using methanol/water and acetonitrile additions. The aqueous phase of the mixture was dried and metabolites present were derivatized prior to the detection by GC-MS.
# Itaconic Acid Synthesis by LPS-Stimulated Macrophages after Treatment with Compound (6). Human monocytes, isolated from peripheral blood and differentiated into macrophages in the presence of 100 ng/mL monocyte colony-stimulating factor (M-CSF) for 5 days, were plated onto a 6-well plate at a density of 1×10^6 cells/well. The cells were allowed to adhere overnight. […] Derivatized metabolites were analyzed by GC-MS. The amount of itaconic acid present in the samples was determined after peak integration. […]
# hCD8^+ T cells = assay: Proliferation of TCR-activated hCD8+ T cells, CFSE dilution; format: cell-based, human; conditions: 10 nM, compared to untreated TCR-activated control cells
# Experimental: Augmentation of CD8^+ T Cell Proliferation. Naïve hCD8^+ T cells were isolated from commercially available buffy coats using magnetic separation and the appropriate kit from Miltenyi Biotec. Cells were then subject to TCR activation using a cocktail of anti-CD2/anti-CD^3/anti-CD28 antibodies. Untreated control and treated cells were included in the experiment. The cells were cultured for 72 hrs in TexMACS media (Miltenyi Biotec) without IL-2 and for an additional 48 hrs in TexMACS media containing 20U human IL-2/mL. Cell division was assessed by flow cytometry using the carboxyfluorescein succimidyl ester (CFSE) dilution method.
# M-MDSCs = assay: Tumor immunophenotyping of CT26 tumors (MDSCs); format: in vivo, mice; conditions: 0.2 mg/kg ip, CT26 tumors 250-1500 mm^3
# Experimental: Tumor Immunophenotyping. To determine the effect of a therapeutic agent on a specific immune cell type in vivo, syngeneic tumor models were employed. In a typical experiment, tumors were allowed to grow to a certain size and were then treated for a specific number of days prior to termination. At the end of the experiment, animals were euthanized, tumors were excised and single cell suspensions were immediately obtained through dissociation of tumor tissues with collagenase. Tumor cell suspensions were then subject to FACS analysis in order to determine the presence of various biomarkers.
# Tumor Immunophenotyping of CT26 Tumors. CT26-tumor bearing mice treated with either vehicle control or 0.2 mg/kg Compound (6) (ip, twice a day) were euthanized when the tumors had reached a size of 250-1500 mm^3. Tumors were excised and single cell suspensions were obtained using the tumor dissociation kit from Miltenyi Biotec per manufacturer's instructions. The suspensions were analyzed for the presence of MDSCs.
structure (smiles),measurement,setting,value
"O=C(O)/C(=C\c1ccc(F)cc1)C(Cc1ccccc1)C(=O)O (stereo not shown) [Compound (6), 2-benzyl-3-[(4-flurophenyl)methylidene]butanedioic acid]",extracellular levels of itaconic acid,IRG1,suppressed
same,intracellular levels of itaconic acid,IRG1,suppressed
same,proliferation of TCR-activated hCD8+ T cells,hCD8^+ T cells,increased proliferation
same,intratumoral frequency of M-MDSCs,M-MDSCs,significantly reduces
